Where “and” joins values, the source holds several entries; their conditions need not be identical. Identical values can stand only once. Inconclusive results and toxic doses are left out. Square brackets hold non-standard residues; d marks the D form. Peptide text beside a SMILES is read from it. * marks the point of attachment. ξ: configuration not given here. ξF = NC(Cc1ccccc1)C(=O)O; Bz = O=C(c1ccccc1)*
Test system: BDF1 mice, B16 melanoma ip, median survival T/C
Experiment: NCI In Vivo Anticancer Drug Screen. Data for tumor model B16 Melanoma (intraperitoneal) in B6D2F1 (BDF1) mice
Details: endpoint: median survival time, higher = longer survival
Summary of the method: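 Values are ratios of treated (T) to vehicle-control (C) measurements of survival or tumor size in tumor-bearing mice.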

[1] = dose: 12.5 mg/kg/injection, schedule: Q01DX009 (ip), vehicle: Klucel (hydroxypropylcellulose) (HPC)
[2] = dose: 25.0 mg/kg/injection, schedule: Q01DX009 (ip), vehicle: Klucel (hydroxypropylcellulose) (HPC)
[3] = dose: 50.0 mg/kg/injection, schedule: Q01DX009 (ip), vehicle: Klucel (hydroxypropylcellulose) (HPC)
[4] = dose: 50.0 mg/kg/injection, schedule: Q01DX009 (ip), vehicle: saline with Tween-80
[5] = dose: 100.0 mg/kg/injection, schedule: Q01DX009 (ip), vehicle: saline with Tween-80
[6] = dose: 200.0 mg/kg/injection, schedule: Q01DX009 (ip), vehicle: saline with Tween-80
[7] = dose: 12.5 mg/kg/injection, schedule: Q01DX009 (ip), vehicle: saline
[8] = dose: 25.0 mg/kg/injection, schedule: Q01DX009 (ip), vehicle: saline
[9] = dose: 6.25 mg/kg/injection, schedule: Q01DX009 (ip), vehicle: saline
[10] = dose: 100.0 mg/kg/injection, schedule: Q01DX009 (ip), vehicle: Klucel (hydroxypropylcellulose) (HPC)
[11] = dose: 200.0 mg/kg/injection, schedule: Q01DX009 (ip), vehicle: Klucel (hydroxypropylcellulose) (HPC)
[12] = dose: 400.0 mg/kg/injection, schedule: Q01DX009 (ip), vehicle: Klucel (hydroxypropylcellulose) (HPC)
[13] = dose: 25.0 mg/kg/injection, schedule: Q04DX003 (ip), vehicle: saline
[14] = dose: 50.0 mg/kg/injection, schedule: Q04DX003 (ip), vehicle: saline
[15] = dose: 12.5 mg/kg/injection, schedule: Q01DX009 (ip), vehicle: saline with Tween-80
[16] = dose: 25.0 mg/kg/injection, schedule: Q01DX009 (ip), vehicle: saline with Tween-80
[17] = dose: 3.12 mg/kg/injection, schedule: Q01DX009 (ip), vehicle: saline

## C/C(Cc1ccccc1)=N\[N+](C)(C)C
dose: 75.0 mg/kg/injection, schedule: Q04DX003 (ip), vehicle: saline
  T/C: 109 % of control
dose: 150.0 mg/kg/injection, schedule: Q04DX003 (ip), vehicle: saline
  T/C: 104 % of control

## C=C1C(=O)OC2C1CCC(C)C1CCC(=O)OC12C (stereo not given)
dose: 3.13 mg/kg/injection, schedule: Q01DX009 (ip), vehicle: Klucel (hydroxypropylcellulose) (HPC)
  T/C: 97 % of control
dose: 6.25 mg/kg/injection, schedule: Q01DX009 (ip), vehicle: Klucel (hydroxypropylcellulose) (HPC)
  T/C: 103 % of control
[1]
  T/C: 100 % of control
[2]
  T/C: 101 % of control

## CCCCNC(=O)C1C=C2c3cccc4[nH]cc(c34)CC2N(C)C1 (stereo not given)
dose: 3.12 mg/kg/injection, schedule: Q01DX009 (ip), vehicle: Klucel (hydroxypropylcellulose) (HPC)
  T/C: 93 % of control
[1]
  T/C: 91 % of control
[2]
  T/C: 93 % of control
[3]
  T/C: 96 % of control

## CC(=O)OCC1OC(n2ncc(=O)[nH]c2=O)C(OC(C)=O)C1OC(C)=O (stereo not given)
[4]
  T/C: 106 % of control
[5]
  T/C: 91 % of control
[6]
  T/C: 95 % of control
dose: 400.0 mg/kg/injection, schedule: Q01DX009 (ip), vehicle: saline with Tween-80
  T/C: 102 % of control
dose: 800.0 mg/kg/injection, schedule: Q01DX009 (ip), vehicle: saline with Tween-80
  T/C: 100 % of control

## C1CCN(CN2CCCCC2)CC1
[7]
  T/C: 97 % of control
[8]
  T/C: 93 % of control

## CCC/C=C/C=C\C(=O)O[C@@H]1[C@@H](C)[C@]2(O)[C@@H]3C=C(C)C(=O)[C@H]3CC(COC(C)=O)=C[C@H]2[C@@H]2C(C)(C)[C@]12OC(C)=O
dose: 0.75 mg/kg/injection, schedule: Q01DX009 (ip), vehicle: saline + alcohol
  T/C: 107 % of control
dose: 1.5 mg/kg/injection, schedule: Q01DX009 (ip), vehicle: saline + alcohol
  T/C: 105 % of control
dose: 3.0 mg/kg/injection, schedule: Q01DX009 (ip), vehicle: saline + alcohol
  T/C: 113 % of control
dose: 6.0 mg/kg/injection, schedule: Q01DX009 (ip), vehicle: saline + alcohol
  T/C: 113 % of control

## O=C(CNC(=O)c1ccccc1)NCC(=O)NC(Cc1ccccc1)C(=O)O (stereo not drawn) (Bz-Gly-Gly-[ξF]-OH)
[4]
  T/C: 90 % of control
[5]
  T/C: 87 % of control
[6]
  T/C: 90 % of control

## NC(=O)c1cc2c(N)[nH]nc2nc1N
[9]
  T/C: 106 % of control
[7]
  T/C: 100 % of control
[8]
  T/C: 95 % of control

## Nc1ncc(N)c(N)n1
dose: 50.0 mg/kg/injection, schedule: Q01DX009 (ip), vehicle: saline
  T/C: 102 % of control
dose: 100.0 mg/kg/injection, schedule: Q01DX009 (ip), vehicle: saline
  T/C: 112 % of control
dose: 200.0 mg/kg/injection, schedule: Q01DX009 (ip), vehicle: saline
  T/C: 108 % of control

## C/C=C(/C)N(C(C)=O)N(C(C)=O)c1ccc([N+](=O)[O-])cc1[N+](=O)[O-]
[10]
  T/C: 100 % of control
[11]
  T/C: 89 % of control
[12]
  T/C: 89 % of control

## COc1ccc2c(ccc[n+]2C)c1
[9]
  T/C: 93 % of control
[7]
  T/C: 90 % of control
dose: 12.5 mg/kg/injection, schedule: Q04DX003 (ip), vehicle: saline
  T/C: 100 % of control
[8]
  T/C: 95 % of control
[13]
  T/C: 100 % of control
[14]
  T/C: 104 % of control

## CCC(C(N)=O)C1=CCCCC1 (stereo not given)
[10]
  T/C: 105 % of control
[11]
  T/C: 101 % of control

## CC1=C/C(=N\NS(=O)(=O)c2ccc([N+](=O)[O-])cc2)CC(C)(C)C1
[3]
  T/C: 94 % of control
[10]
  T/C: 93 % of control
[11]
  T/C: 96 % of control
[12]
  T/C: 88 % of control

## CCCC(C(CC)CN(C)C)N(C)C (stereo not given)
[15]
  T/C: 90 % of control
[16]
  T/C: 96 % of control
[4]
  T/C: 94 % of control

## NNC(=O)c1ccc(Cl)cc1Nc1ccc(F)cc1
[13]
  T/C: 92 % of control
[14]
  T/C: 97 % of control
dose: 100.0 mg/kg/injection, schedule: Q04DX003 (ip), vehicle: saline
  T/C: 100 % of control

## Cc1cc(NC(=O)CCc2ccc(N3C(N)=NC(N)=NC3(C)C)cc2)ccc1S(=O)(=O)F
dose: 50.0 mg/kg/injection, schedule: Q01DX009 (ip), vehicle: saline sonified
  T/C: 118 % of control
dose: 100.0 mg/kg/injection, schedule: Q01DX009 (ip), vehicle: saline sonified
  T/C: 94 % of control
dose: 200.0 mg/kg/injection, schedule: Q01DX009 (ip), vehicle: saline sonified
  T/C: 100 % of control

## Oc1ccccc1C(Nc1nc2ccccc2s1)c1ccc2cccnc2c1O (stereo not given)
[2]
  T/C: 114 % of control
[3]
  T/C: 105 % of control and 119 % of control (2×)
dose: 75.0 mg/kg/injection, schedule: Q01DX009 (ip), vehicle: Klucel (hydroxypropylcellulose) (HPC)
  T/C: 107 % of control
[10]
  T/C: 110 % of control and 119 % of control
dose: 150.0 mg/kg/injection, schedule: Q01DX009 (ip), vehicle: Klucel (hydroxypropylcellulose) (HPC)
  T/C: 97 % of control
[11]
  T/C: 124 % of control
[12]
  T/C: 152 % of control

## CCCCCCCCCCCCCCCCCCOCC(COP(=O)([O-])OCC[N+](C)(C)C)OC (stereo not given)
[17]
  T/C: 91 % of control
[9]
  T/C: 95 % of control
[7]
  T/C: 92 % of control
[8]
  T/C: 87 % of control

## CCC(=O)Nc1cc(C(F)(F)F)ccc1Cl
[16]
  T/C: 100 % of control
[4]
  T/C: 101 % of control and 119 % of control
[5]
  T/C: 96 % of control and 105 % of control
[6]
  T/C: 105 % of control

## Cn1c(Cl)nc2c(Cl)nc(Cl)nc21
dose: 1.0 mg/kg/injection, schedule: Q01DX009 (ip), vehicle: saline
  T/C: 105 % of control
dose: 2.0 mg/kg/injection, schedule: Q01DX009 (ip), vehicle: saline
  T/C: 100 % of control
dose: 4.0 mg/kg/injection, schedule: Q01DX009 (ip), vehicle: saline
  T/C: 97 % of control
dose: 8.0 mg/kg/injection, schedule: Q01DX009 (ip), vehicle: saline
  T/C: 95 % of control
dose: 16.0 mg/kg/injection, schedule: Q01DX009 (ip), vehicle: saline
  T/C: 92 % of control
dose: 32.0 mg/kg/injection, schedule: Q01DX009 (ip), vehicle: saline
  T/C: 92 % of control

## O=c1[nH]c(Cl)ncc1F
dose: 37.5 mg/kg/injection, schedule: Q01DX009 (ip), vehicle: Klucel (hydroxypropylcellulose) (HPC)
  T/C: 87 % of control

## O=Cc1ccc(C(Cl)(Cl)Cl)cc1
[15]
  T/C: 91 % of control
[16]
  T/C: 103 % of control
[4]
  T/C: 101 % of control and 104 % of control
[5]
  T/C: 106 % of control and 107 % of control
[6]
  T/C: 103 % of control and 110 % of control

## O=NNc1ccccn1
[17]
  T/C: 116 % of control
[9]
  T/C: 119 % of control
[7]
  T/C: 156 % of control and 165 % of control

## [Cu+2].[NH-]CC(=O)O.[NH-]CC(=O)O
dose: 2.5 mg/kg/injection, schedule: Q01DX009 (ip), vehicle: saline
  T/C: 97 % of control
dose: 2.5 mg/kg/injection, schedule: Q04DX003 (ip), vehicle: saline with Tween-80
  T/C: 121 % of control
dose: 5.0 mg/kg/injection, schedule: Q01DX009 (ip), vehicle: saline
  T/C: 95 % of control and 102 % of control
dose: 5.0 mg/kg/injection, schedule: Q04DX003 (ip), vehicle: saline with Tween-80
  T/C: 115 % of control
dose: 10.0 mg/kg/injection, schedule: Q01DX009 (ip), vehicle: saline
  T/C: 95 % of control and 100 % of control
dose: 10.0 mg/kg/injection, schedule: Q04DX003 (ip), vehicle: saline with Tween-80
  T/C: 100 % of control

— PubChem BioAssay AID192 (DTP/NCI, 2004)
